Earlier results as cited in patent publication US20220202720A1, “SUSTAINED RELEASE C[…] AND METHOD OF PREPARATION THEREOF” (PHARMATHEN S.A., priority 2019, published 2022).

Molecular target: recombinant μ-opioid receptor (Homo sapiens, UniProt P35372)
Sequence (P35372 whole entry, species assumed): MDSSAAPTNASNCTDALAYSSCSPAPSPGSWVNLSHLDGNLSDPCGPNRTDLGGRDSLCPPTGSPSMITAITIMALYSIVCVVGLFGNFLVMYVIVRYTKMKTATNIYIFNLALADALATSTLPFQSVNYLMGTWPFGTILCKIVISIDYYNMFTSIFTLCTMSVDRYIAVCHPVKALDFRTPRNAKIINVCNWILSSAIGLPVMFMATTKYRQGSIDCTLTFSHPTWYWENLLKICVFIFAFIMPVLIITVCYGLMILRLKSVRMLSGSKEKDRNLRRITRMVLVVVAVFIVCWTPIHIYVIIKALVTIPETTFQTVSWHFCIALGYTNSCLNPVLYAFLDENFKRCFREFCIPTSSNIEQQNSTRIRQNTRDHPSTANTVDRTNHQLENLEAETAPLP

CC[C@@H](c1cccc(O)c1)[C@@H](C)CN(C)C [Tapentadol]
reduced affinity to recombinant μ-opioid receptor compared to morphine: 18 times
